For this assay, the target named is bovine cardiac myosin (Bos taurus, UniProt Q9BE39). The experiment in a line: Myosin activation assay (PK/LDH-coupled ATPase, bovine cardiac myofibrils). It counts as biochemical. As to conditions: AC20 = concentration at which total response is increased by twenty percent. Summed up:
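Values are the concentrations raising the ATPase rate by 20% or 50% over DMSO, from 10-point dose responses fitted with four parameters. Rate is NADH loss at 340 nm via PK/LDH coupling, read 15 min at room temperature, in pH 6.8 PIPES with 50 μM ATP. Bovine cardiac myofibrils were held at pCa ~6 or pCa 10.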

Sequence of bovine cardiac myosin (Q9BE39 whole entry): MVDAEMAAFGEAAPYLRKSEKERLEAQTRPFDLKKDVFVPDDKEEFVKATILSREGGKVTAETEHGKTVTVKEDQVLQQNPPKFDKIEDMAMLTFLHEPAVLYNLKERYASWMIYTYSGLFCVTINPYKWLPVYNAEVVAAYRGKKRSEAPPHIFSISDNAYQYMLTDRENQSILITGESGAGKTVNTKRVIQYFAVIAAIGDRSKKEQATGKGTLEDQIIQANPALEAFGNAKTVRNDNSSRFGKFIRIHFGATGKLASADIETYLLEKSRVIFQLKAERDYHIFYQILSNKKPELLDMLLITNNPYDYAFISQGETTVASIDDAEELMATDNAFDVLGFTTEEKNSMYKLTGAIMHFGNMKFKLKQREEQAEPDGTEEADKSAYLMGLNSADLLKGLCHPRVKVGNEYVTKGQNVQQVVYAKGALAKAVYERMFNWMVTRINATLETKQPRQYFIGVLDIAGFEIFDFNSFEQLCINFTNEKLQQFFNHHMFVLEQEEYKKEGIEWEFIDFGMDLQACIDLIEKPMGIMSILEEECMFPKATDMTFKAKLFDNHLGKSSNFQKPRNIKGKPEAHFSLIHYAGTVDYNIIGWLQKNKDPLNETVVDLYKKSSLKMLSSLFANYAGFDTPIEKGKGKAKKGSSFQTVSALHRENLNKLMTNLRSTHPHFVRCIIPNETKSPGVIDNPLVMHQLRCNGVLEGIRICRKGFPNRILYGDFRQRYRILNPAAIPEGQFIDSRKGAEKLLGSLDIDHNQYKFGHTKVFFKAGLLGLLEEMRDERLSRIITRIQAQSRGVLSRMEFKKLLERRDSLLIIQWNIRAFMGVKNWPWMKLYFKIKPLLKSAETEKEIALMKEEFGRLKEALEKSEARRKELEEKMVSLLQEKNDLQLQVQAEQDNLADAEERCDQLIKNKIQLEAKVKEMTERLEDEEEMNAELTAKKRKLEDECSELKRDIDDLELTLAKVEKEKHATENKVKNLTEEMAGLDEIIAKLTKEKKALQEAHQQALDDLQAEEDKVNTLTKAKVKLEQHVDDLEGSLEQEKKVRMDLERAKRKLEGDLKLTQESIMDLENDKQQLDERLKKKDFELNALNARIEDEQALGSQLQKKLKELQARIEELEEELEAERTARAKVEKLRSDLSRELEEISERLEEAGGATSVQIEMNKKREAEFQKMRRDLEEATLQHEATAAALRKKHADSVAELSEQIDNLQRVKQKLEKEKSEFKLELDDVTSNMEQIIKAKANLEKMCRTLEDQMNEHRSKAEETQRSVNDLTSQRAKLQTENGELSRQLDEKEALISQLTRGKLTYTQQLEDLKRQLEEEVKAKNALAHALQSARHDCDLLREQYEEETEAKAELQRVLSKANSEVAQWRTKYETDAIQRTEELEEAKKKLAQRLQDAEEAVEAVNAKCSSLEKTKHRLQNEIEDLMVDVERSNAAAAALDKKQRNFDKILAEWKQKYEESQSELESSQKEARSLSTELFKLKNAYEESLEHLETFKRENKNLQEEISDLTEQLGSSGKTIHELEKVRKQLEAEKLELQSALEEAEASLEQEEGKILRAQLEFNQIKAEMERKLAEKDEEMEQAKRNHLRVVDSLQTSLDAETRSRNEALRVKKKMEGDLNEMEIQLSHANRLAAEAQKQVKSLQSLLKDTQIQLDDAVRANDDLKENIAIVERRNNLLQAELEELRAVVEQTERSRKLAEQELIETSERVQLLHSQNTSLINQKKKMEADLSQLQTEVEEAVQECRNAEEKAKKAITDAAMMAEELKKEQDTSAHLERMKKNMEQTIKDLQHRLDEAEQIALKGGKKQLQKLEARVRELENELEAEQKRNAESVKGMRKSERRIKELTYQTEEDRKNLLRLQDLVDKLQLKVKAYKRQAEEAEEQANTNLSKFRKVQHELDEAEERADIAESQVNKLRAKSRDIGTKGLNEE
Sequence of bovine cardiac myosin (P85100 whole entry partner): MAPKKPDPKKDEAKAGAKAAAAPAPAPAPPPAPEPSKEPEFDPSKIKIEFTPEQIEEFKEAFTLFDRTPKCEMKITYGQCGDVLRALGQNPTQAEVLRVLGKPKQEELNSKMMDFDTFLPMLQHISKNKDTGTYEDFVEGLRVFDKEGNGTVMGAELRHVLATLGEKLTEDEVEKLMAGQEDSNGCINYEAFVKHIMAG
Sequence of bovine cardiac myosin (Q3SZE5 whole entry partner): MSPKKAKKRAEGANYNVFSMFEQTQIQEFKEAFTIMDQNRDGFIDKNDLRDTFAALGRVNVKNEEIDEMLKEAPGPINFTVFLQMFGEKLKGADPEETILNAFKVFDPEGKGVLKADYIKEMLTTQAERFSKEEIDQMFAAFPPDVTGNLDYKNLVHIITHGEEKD

`CC(C)(C1CCN(C(=O)Nc2ccnc(F)c2)CC1)S(=O)(=O)c1cccc(F)c1` [Compound 151, 4-(2-((3-fluorophenyl)sulfonyl)propan-2-yl)-N-(2-fluoropyridin-4-yl)piperidine-1-carboxamide]: the “Myosin Activation (AC20)” value was “++ (++ represents myosin activation value AC20 from 2 μM-5 μM)”.
Turning to `CC(F)(C1CCN(C(=O)Nc2cnns2)CC1)S(=O)(=O)c1ccc(C(F)(F)F)cc1` (stereo not drawn) [Compound 268, 4-(1-fluoro-1-((4-(trifluoromethyl)phenyl)sulfonyl)ethyl)-N-(1,2,3-thiadiazol-5-yl)piperidine-1-carboxamide], the “Myosin Activation (AC20)” value is “+++ (+++ represents myosin activation value AC20 < 2 μM)”.
The value for `O=C(Nc1ccncc1)N1CCC(C2(S(=O)(=O)c3ccc(OC(F)(F)F)cc3)CC2)CC1` [Compound 206, N-(pyridin-4-yl)-4-(1-((4-(trifluoromethoxy)phenyl)sulfonyl)cyclopropyl)piperidine-1-carboxamide] was “+++ (+++ represents myosin activation value AC20 < 2 μM)”; that for `C[C@@H](O)c1cc(NC(=O)N2CCC([C@](C)(F)S(=O)(=O)c3cccc(F)c3)CC2)ccn1` [Compound 303, 4-((R)-1-fluoro-1-((3-fluorophenyl)sulfonyl)ethyl)-N-(2-((R)-1-hydroxyethyl)pyridin-4-yl)piperidine-1-carboxamide] was “+ (+ represents myosin activation value AC20 > 5 μM)”; that for `CCn1nccc1S(=O)(=O)C(C)(F)C1CCN(C(=O)Nc2ccnnc2)CC1` (stereo not drawn) [Compound 269, 4-(1-((1-ethyl-1H-pyrazol-5-yl)sulfonyl)-1-fluoroethyl)-N-(pyridazin-4-yl)piperidine-1-carboxamide] was “++ (++ represents myosin activation value AC20 from 2 μM-5 μM)”.
The value for `CC(C)(C1CCN(C(=O)Nc2ccc(F)nc2)CC1)S(=O)(=O)c1ccc(C(F)(F)F)nc1` [Compound 104, N-(6-fluoropyridin-3-yl)-4-(2-((6-(trifluoromethyl)pyridin-3-yl)sulfonyl)propan-2-yl)piperidine-1-carboxamide] was “+ (+ represents myosin activation value AC20 > 5 μM)”; that for `Cc1cc(C#N)ccc1S(=O)(=O)C(F)(F)C1CCN(C(=O)Nc2ccnnc2)CC1` [Compound 52, 4-(((4-cyano-2-methylphenyl)sulfonyl)difluoromethyl)-N-(pyridazin-4-yl)piperidine-1-carboxamide] was “++ (++ represents myosin activation value AC20 from 2 μM-5 μM)”.
With `CCC(F)(C1CCN(C(=O)Nc2ccnnc2)CC1)S(=O)(=O)c1cccc(F)c1` (stereo not drawn) [Compound 77, 4-(1-fluoro-1-((3-fluorophenyl)sulfonyl)propyl)-N-(pyridazin-4-yl)piperidine-1-carboxamide], the “Myosin Activation (AC20)” value is recorded as “++ (++ represents myosin activation value AC20 from 2 μM-5 μM)”.
For `Cc1ccc(NC(=O)N2CCC(C(C)(C)S(=O)(=O)c3cn(C)nc3C(F)F)CC2)cn1` [Compound 155, 4-(2-((3-(difluoromethyl)-1-methyl-1H-pyrazol-4-yl)sulfonyl)propan-2-yl)-N-(6-methylpyridin-3-yl)piperidine-1-carboxamide] the value was “++ (++ represents myosin activation value AC20 from 2 μM-5 μM)”.
The value for `CC(C)(C1CCN(C(=O)Nc2ccc(F)nc2)CC1)S(=O)(=O)c1cccc(F)c1` [Compound 152, 4-(2-((3-fluorophenyl)sulfonyl)propan-2-yl)-N-(6-fluoropyridin-3-yl)piperidine-1-carboxamide] was “++ (++ represents myosin activation value AC20 from 2 μM-5 μM)”; that for `O=C(Nc1ccnnc1)N1CCC(C(F)(F)S(=O)(=O)c2ccc(OC(F)(F)F)cc2)CC1` [Compound 48, 4-(difluoro((4-(trifluoromethoxy)phenyl)sulfonyl)methyl)-N-(pyridazin-4-yl)piperidine-1-carboxamide] was “++ (++ represents myosin activation value AC20 from 2 μM-5 μM)”; that for `Cn1cc(S(=O)(=O)C(F)(F)C2CCN(C(=O)Nc3ccc(F)nc3)CC2)c(C(F)F)n1` [Compound 81, 4-(((3-(difluoromethyl)-1-methyl-1H-pyrazol-4-yl)sulfonyl)difluoromethyl)-N-(6-fluoropyridin-3-yl)piperidine-1-carboxamide] was “+ (+ represents myosin activation value AC20 > 5 μM)”.
For `COc1ccccc1S(=O)(=O)C(C)(F)C1CCN(C(=O)Nc2ccnnc2)CC1` (stereo not drawn) [Compound 273, 4-(1-fluoro-1-((2-methoxyphenyl)sulfonyl)ethyl)-N-(pyridazin-4-yl)piperidine-1-carboxamide] the value was “++ (++ represents myosin activation value AC20 from 2 μM-5 μM)”.
On to `C[C@](F)(C1CCN(C(=O)Nc2ccon2)CC1)S(=O)(=O)c1ccc(C(F)(F)F)nc1` [Compound 310, (R)-4-(1-fluoro-1-((6-(trifluoromethyl)pyridin-3-yl)sulfonyl)ethyl)-N-(isoxazol-3-yl)piperidine-1-carboxamide], for which the “Myosin Activation (AC20)” value is “++ (++ represents myosin activation value AC20 from 2 μM-5 μM)”.
For `Cn1cc(S(=O)(=O)C(C)(C)C2CCN(C(=O)Nc3cnoc3)CC2)c(C(F)F)n1` [Compound 157, 4-(2-((3-(difluoromethyl)-1-methyl-1H-pyrazol-4-yl)sulfonyl)propan-2-yl)-N-(isoxazol-4-yl)piperidine-1-carboxamide], the “Myosin Activation (AC20)” value was “+++ (+++ represents myosin activation value AC20 < 2 μM)”.
For `CC(F)(C1CCN(C(=O)Nc2ccnc(F)c2)CC1)S(=O)(=O)c1ccc(C(F)(F)F)cc1` (stereo not drawn) [Compound 243, 4-(1-fluoro-1-((4-(trifluoromethyl)phenyl)sulfonyl)ethyl)-N-(2-fluoropyridin-4-yl)piperidine-1-carboxamide] the value was “++ (++ represents myosin activation value AC20 from 2 μM-5 μM)”; for `Cn1cc(S(=O)(=O)[C@@](C)(F)C2CCN(C(=O)Nc3cccnc3)CC2)c(C(F)F)n1` [Compound 288, (R)-4-(1-((3-(difluoromethyl)-1-methyl-1H-pyrazol-4-yl)sulfonyl)-1-fluoroethyl)-N-(pyridin-3-yl)piperidine-1-carboxamide], “++ (++ represents myosin activation value AC20 from 2 μM-5 μM)”; for `CC(F)(C1CCN(C(=O)Nc2ccnc(F)c2)CC1)S(=O)(=O)c1cccc(F)c1` (stereo not drawn) [Compound 236, 4-(1-fluoro-1-((3-fluorophenyl)sulfonyl)ethyl)-N-(2-fluoropyridin-4-yl)piperidine-1-carboxamide], “++ (++ represents myosin activation value AC20 from 2 μM-5 μM)”.
For `Cn1cnc(S(=O)(=O)C(C)(C)C2CCN(C(=O)Nc3ccnnc3)CC2)c1` [Compound 172, 4-(2-((1-methyl-1H-imidazol-4-yl)sulfonyl)propan-2-yl)-N-(pyridazin-4-yl)piperidine-1-carboxamide] the value was “+ (+ represents myosin activation value AC20 > 5 μM)”; for `Cn1nc(C2CC2)cc1S(=O)(=O)C(F)(F)C1CCN(C(=O)Nc2ccnnc2)CC1` [Compound 24, 4-(((3-Cyclopropyl-1-methyl-1H-pyrazol-5-yl)sulfonyl)difluoromethyl)-N-(pyridazin-4-yl)piperidine-1-carboxamide], “++ (++ represents myosin activation value AC20 from 2 μM-5 μM)”.
The value for `Cn1cc(S(=O)(=O)[C@@](C)(F)C2CCN(C(=O)Nc3cn[nH]c3)CC2)c(C(F)F)n1` [Compound 289, (R)-4-(1-((3-(difluoromethyl)-1-methyl-1H-pyrazol-4-yl)sulfonyl)-1-fluoroethyl)-N-(1H-pyrazol-4-yl)piperidine-1-carboxamide] was “++ (++ represents myosin activation value AC20 from 2 μM-5 μM)”.
As for `CC(C)(C1CCN(C(=O)Nc2cnoc2)CC1)S(=O)(=O)c1cccc(F)c1` [Compound 158, 4-(2-((3-fluorophenyl)sulfonyl)propan-2-yl)-N-(isoxazol-4-yl)piperidine-1-carboxamide], the “Myosin Activation (AC20)” value is “+++ (+++ represents myosin activation value AC20 < 2 μM)”.
For `O=C(Nc1ccnnc1)N1CCC(CS(=O)(=O)c2cccc(F)c2)CC1` [Compound 34, 4-(((3-fluorophenyl)sulfonyl)methyl)-N-(pyridazin-4-yl)piperidine-1-carboxamide] the value was “+ (+ represents myosin activation value AC20 > 5 μM)”; for `O=C(Nc1ccnnc1)N1CCC(C(F)(F)S(=O)(=O)c2ccccc2C(F)F)CC1` [Compound 4, 4-(((2-(Difluoromethyl)phenyl)sulfonyl)difluoromethyl)-N-(pyridazin-4-yl)piperidine-1-carboxamide], “++ (++ represents myosin activation value AC20 from 2 μM-5 μM)”; for `Cn1nccc1S(=O)(=O)C1(C2CCN(C(=O)Nc3cnns3)CC2)CCC1` [Compound 175, 4-(1-((1-methyl-1H-pyrazol-5-yl)sulfonyl)cyclobutyl)-N-(1,2,3-thiadiazol-5-yl)piperidine-1-carboxamide], “+++ (+++ represents myosin activation value AC20 < 2 μM)”.
For `Cn1cc(S(=O)(=O)C(C)(C)C2CCN(C(=O)Nc3ccncc3)CC2)cn1` [Compound 198, 4-(2-((1-methyl-1H-pyrazol-4-yl)sulfonyl)propan-2-yl)-N-(pyridin-4-yl)piperidine-1-carboxamide] the value was “+ (+ represents myosin activation value AC20 > 5 μM)”; for `Cn1cc(S(=O)(=O)C(C)(C)C2CCN(C(=O)Nc3ccc(F)nc3)CC2)c(C(F)F)n1` [Compound 117, 4-(2-((3-(difluoromethyl)-1-methyl-1H-pyrazol-4-yl)sulfonyl)propan-2-yl)-N-(6-fluoropyridin-3-yl)piperidine-1-carboxamide], “++ (++ represents myosin activation value AC20 from 2 μM-5 μM)”.

Values taken from US11123337B2, “4-methylsulfonyl-substituted piperidine urea compounds” (MYOKARDIA, INC., priority 2015, dated 2021).
